Results reported in patent US8871753B2, “Macrocyclic compounds and their use as kinase inhibitors” (Incyte Corporation, priority 2008, dated 2014).
Structures can show the parent of a compound that is named as a salt. Where two headings read alike, the source gives them in different places.

What was measured:
Type in all cases: biochemical
[1] = biological target: T1, human JAK3 (a.a. 781-1124) (Homo sapiens, UniProt P52333); assay: In vitro JAK kinase assay (HTRF, phosphorylation of a biotinylated peptide), JAK3
T1 construct: JAK3 (a.a. 781-1124); His tag (N); made in house; host or cells: insect cells (baculovirus)
T1 sequence (P52333 781-1124): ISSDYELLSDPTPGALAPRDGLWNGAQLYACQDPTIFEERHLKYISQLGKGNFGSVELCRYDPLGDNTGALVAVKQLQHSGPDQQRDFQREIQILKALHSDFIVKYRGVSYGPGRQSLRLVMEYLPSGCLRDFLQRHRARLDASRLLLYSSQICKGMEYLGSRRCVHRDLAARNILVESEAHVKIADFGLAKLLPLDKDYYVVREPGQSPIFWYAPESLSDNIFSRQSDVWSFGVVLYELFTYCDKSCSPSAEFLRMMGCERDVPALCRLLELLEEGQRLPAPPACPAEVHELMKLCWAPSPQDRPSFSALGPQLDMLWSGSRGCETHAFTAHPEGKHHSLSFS
Outline: (§1)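 Kinase activity was measured as phosphorylation of a biotinylated peptide, with ATP at 90 μM for JAK1, 30 μM for JAK2 and 3 μM for JAK3. Reactions ran 1 hr at room temperature, were stopped with EDTA plus SA-APC and Eu-Py20, and were read by HTRF after 40 minutes of antibody binding.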

[2] = biological target: T2, human JAK1 (a.a. 837-1142) (Homo sapiens, UniProt P23458); assay: In vitro JAK kinase assay (HTRF, phosphorylation of a biotinylated peptide), JAK1; details: read-out: JAK1 IC50
T2 construct: human JAK1 (a.a. 837-1142); His tag (N); made in house; host or cells: insect cells (baculovirus)
T2 sequence (P23458 849-1154): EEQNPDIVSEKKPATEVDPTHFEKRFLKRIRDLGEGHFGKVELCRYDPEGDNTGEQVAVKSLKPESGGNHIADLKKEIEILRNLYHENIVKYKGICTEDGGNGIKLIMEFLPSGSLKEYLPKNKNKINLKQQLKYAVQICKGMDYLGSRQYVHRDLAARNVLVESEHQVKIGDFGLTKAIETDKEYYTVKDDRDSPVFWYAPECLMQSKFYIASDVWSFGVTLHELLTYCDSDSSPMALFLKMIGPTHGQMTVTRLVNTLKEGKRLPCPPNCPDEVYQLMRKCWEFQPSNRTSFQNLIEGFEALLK
Outline: as §1

[3] = biological target: T3, human JAK2 (a.a. 828-1132) (Homo sapiens, UniProt O60674); assay: In vitro JAK kinase assay (HTRF, phosphorylation of a biotinylated peptide), JAK2
T3 construct: JAK2 (a.a. 828-1132); His tag (N); made in house; host or cells: insect cells (baculovirus)
T3 sequence (O60674 828-1132): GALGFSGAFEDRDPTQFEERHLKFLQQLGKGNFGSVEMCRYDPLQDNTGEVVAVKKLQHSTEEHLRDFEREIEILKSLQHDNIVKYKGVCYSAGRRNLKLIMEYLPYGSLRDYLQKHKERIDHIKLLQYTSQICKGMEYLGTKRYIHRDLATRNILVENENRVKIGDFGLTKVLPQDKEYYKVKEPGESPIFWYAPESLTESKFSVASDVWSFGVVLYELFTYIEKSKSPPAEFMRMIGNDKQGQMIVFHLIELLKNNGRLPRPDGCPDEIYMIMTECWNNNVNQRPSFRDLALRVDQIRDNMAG
Outline: as §1

[4] = biological target: T4, Recombinant Human Anaplastic Lymphoma Kinase (Homo sapiens, UniProt Q9UM73); assay: ALK HTRF kinase assay; details: for IC50: Table D1
T4 construct: purchased Invitrogen, Carlsbad, Calif
T4 sequence (Q9UM73 19-1620): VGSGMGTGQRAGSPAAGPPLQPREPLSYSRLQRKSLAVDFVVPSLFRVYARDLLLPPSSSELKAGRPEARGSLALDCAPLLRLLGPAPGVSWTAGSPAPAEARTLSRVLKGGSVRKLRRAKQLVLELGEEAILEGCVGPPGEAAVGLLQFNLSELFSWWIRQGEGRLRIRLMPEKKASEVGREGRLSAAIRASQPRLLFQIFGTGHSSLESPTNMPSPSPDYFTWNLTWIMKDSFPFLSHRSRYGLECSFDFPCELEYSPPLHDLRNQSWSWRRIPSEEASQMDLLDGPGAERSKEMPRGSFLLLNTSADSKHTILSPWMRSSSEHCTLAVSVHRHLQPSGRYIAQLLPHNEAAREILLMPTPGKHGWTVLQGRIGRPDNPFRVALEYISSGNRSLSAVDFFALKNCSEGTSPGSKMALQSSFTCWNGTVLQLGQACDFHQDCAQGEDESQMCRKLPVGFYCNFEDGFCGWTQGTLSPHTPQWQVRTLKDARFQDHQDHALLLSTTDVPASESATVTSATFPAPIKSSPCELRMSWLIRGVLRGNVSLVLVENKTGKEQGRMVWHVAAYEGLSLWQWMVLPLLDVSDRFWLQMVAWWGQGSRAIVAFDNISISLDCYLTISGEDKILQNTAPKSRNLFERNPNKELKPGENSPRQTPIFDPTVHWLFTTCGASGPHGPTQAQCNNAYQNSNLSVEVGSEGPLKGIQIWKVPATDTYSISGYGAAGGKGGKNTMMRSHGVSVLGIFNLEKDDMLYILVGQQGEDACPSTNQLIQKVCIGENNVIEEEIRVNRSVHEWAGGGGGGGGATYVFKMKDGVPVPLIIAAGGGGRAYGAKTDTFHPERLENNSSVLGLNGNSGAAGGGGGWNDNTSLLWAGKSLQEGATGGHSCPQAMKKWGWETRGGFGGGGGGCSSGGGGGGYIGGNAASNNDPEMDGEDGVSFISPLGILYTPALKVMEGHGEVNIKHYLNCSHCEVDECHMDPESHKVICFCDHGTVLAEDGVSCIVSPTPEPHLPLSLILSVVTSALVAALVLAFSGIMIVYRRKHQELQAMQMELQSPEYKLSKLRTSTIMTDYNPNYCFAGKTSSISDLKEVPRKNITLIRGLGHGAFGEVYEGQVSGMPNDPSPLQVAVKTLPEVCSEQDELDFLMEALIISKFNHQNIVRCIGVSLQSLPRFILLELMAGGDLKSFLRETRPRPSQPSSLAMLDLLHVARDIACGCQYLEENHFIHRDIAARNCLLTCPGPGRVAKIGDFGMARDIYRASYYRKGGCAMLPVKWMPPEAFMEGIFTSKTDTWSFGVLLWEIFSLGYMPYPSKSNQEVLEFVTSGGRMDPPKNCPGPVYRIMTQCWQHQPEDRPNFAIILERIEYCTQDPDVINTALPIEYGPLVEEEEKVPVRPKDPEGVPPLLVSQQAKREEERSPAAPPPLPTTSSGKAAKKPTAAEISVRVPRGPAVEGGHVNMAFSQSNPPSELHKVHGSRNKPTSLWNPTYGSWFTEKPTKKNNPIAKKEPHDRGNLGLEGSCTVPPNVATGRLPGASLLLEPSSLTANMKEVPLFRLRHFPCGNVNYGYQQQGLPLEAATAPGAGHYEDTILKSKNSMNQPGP
Outline: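 Recombinant human ALK with biotinylated peptide substrate; phosphorylation detected by HTRF using Eu-labelled anti-phosphotyrosine antibody and streptavidin-allophycocyanin. IC50 from a sigmoidal fit with Hill slope.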

TYK2 = TYK2 (Homo sapiens, UniProt P29597); assay: TYK2 kinase inhibition (Table A1)
Chain of TYK2 (P29597 whole entry): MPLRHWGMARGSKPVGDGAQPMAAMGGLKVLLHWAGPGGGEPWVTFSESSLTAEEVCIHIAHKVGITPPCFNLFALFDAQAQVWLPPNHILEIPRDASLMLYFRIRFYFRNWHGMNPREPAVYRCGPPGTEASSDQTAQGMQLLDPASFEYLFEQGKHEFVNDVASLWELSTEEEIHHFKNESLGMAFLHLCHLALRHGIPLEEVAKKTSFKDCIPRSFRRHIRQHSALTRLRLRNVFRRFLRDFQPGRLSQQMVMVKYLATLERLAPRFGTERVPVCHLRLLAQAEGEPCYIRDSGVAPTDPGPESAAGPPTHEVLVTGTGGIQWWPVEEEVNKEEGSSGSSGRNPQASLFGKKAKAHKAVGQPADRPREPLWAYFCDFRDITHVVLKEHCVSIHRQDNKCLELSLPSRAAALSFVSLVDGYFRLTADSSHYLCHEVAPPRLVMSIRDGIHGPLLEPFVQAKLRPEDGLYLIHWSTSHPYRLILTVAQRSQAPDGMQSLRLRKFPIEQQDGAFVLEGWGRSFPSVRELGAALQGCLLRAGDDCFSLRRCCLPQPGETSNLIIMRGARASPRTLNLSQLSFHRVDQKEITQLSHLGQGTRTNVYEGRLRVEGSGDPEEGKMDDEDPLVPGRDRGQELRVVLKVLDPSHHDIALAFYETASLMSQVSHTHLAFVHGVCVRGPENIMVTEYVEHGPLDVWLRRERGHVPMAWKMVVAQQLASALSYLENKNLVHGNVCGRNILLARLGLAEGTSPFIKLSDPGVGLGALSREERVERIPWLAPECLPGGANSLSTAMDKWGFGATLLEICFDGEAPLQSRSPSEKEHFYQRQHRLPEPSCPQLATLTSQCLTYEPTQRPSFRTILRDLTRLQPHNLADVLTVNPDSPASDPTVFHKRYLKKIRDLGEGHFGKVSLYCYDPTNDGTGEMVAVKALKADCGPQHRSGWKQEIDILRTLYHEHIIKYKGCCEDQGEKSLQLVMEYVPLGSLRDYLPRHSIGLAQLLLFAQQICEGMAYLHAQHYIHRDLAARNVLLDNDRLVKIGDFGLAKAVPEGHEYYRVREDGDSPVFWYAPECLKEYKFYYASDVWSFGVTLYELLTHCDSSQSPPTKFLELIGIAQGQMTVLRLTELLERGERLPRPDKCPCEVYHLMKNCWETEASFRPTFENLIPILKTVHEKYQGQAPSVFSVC

[5] = compound at a concentration of 500 nM or 1 mM (not specified), cells shown as percentage

Compound: O=C(Nc1ccc2cc1CCc1cccc(c1)Nc1ncc(Cl)c(n1)N2)NC1CCCCC1 [Example B119, N-[6-Chloro-2,4,8,22-tetraazatetracyclo[14.3.1.1(3,7).1(9,13)]docosa-1(20), 3(22),4,6,9(21),10,12,16,18-nonaen-12-yl]-N′-cyclohexylurea trifluoroacetate]
- IC50 ([1]; Table B1): 0.048 µM
- IC50 ([2]; Table B1): 0.0029 µM
- IC50 ([3]; Table B1): 0.0033 µM
- ALK % of inhibition at a concentration of 500 nM or 1 mM [4, 5]: 19%
- IC50 (TYK2; Table B1): 0.0098 µM

Compound: COc1cccc(N2CCN(C(=O)Nc3ccc4cc3CCc3cncc(c3)Nc3ncc(Cl)c(n3)N4)CC2)c1 [Example B304, N-[6-Chloro-2,4,8,18,22-pentaazatetracyclo[14.3.1.1(3,7).1(9,13)]docosa-1(20),3(22),4,6,9(21),10,12,16,18-nonaen-12-yl]-4-(3-methoxyphenyl)piperazine-1-carboxamide tris(trifluoroacetate)]
- IC50 ([1]; Table B1): > 0.4 µM
- IC50 ([2]; Table B1): 0.058 µM
- IC50 ([3]; Table B1): 0.3 µM
- ALK % of inhibition at a concentration of 500 nM or 1 mM ([4]; percentage inhibition of the example compound at a concentration of 500 nM or 1 mM (not specified which)): 67%
- IC50 (TYK2; Table B1): 0.09 µM

Compound: O=S1(=O)CCOc2cccc(c2)Nc2ncc(Cl)c(n2)Nc2cccc1c2 [Example D14, 6-Chloro-17-oxa-14-thia-2,4,8,24-tetraazatetracyclo[16.3.1.1(3,7).1(9,13)]tetracosa-1(22),3(24),4,6,9(23),10,12,18,20-nonaene 14,14-dioxide trifluoroacetate]
- IC50 ([1]; Table D1): 0.011 µM
- IC50 ([2]; Table D1): 0.0022 µM
- IC50 ([3]; Table D1): 0.0022 µM
- IC50 ([4]; 90 μM ATP): 0.732 µM
- IC50 (TYK2; Table D1): 0.005 µM

Compound: Cn1ccc(C(=O)N2CC[C@H](NC(=O)Nc3ccc4cc3CCc3cncc(c3)Nc3ncc(Cl)c(n3)N4)C2)n1 [Example B272, N-[6-Chloro-2,4,8,18,22-pentaazatetracyclo[14.3.1.1(3,7).1(9,13)]docosa-1(20),3(22),4,6,9(21),10,12,16,18-nonaen-12-yl]-N′-{(3S)-1-[(1-methyl-1H-pyrazol-3-yl)carbonyl]pyrrolidin-3-yl}urea bis(trifluoroacetate)]
- IC50 ([1]; Table B1): > 10 µM
- IC50 ([2]; Table B1): 0.014 µM
- IC50 ([3]; Table B1): 0.316 µM
- ALK % of inhibition at a concentration of 500 nM or 1 mM [4, 5]: 23%
- IC50 (TYK2; Table B1): 0.575 µM

Compound: O=C(NCCN1CCCC1=O)Nc1ccc2cc1CCc1cccc(c1)Nc1ncc(Cl)c(n1)N2 [Example B257, N-[6-Chloro-2,4,8,22-tetraazatetracyclo[14.3.1.1(3,7).1(9,13)]docosa-1(20),3(22),4,6,9(21),10,12,16,18-nonaen-12-yl]-N′-[2-(2-oxopyrrolidin-1-yl)ethyl]urea trifluoroacetate]
- IC50 ([1]; Table B1): 0.064 µM
- IC50 ([2]; Table B1): 0.0073 µM
- IC50 ([3]; Table B1): 0.0095 µM
- ALK % of inhibition at a concentration of 500 nM or 1 mM [4, 5]: 14%
- IC50 (TYK2; Table B1): 0.018 µM

Compound: CC(C)S(=O)(=O)N1CCC(CC(=O)Nc2ccc3cc2CCc2cccc(c2)Nc2ncc(Cl)c(n2)N3)CC1 [Example A82, N-[6-Chloro-2,4,8,22-tetraazatetracyclo[14.3.1.1(3,7).1(9,13)]docosa-1(20),3(22),4,6,9(21),10,12,16,18-nonaen-12-yl]-2-[1-(isopropylsulfonyl)piperidin-4-yl]acetamide trifluoroacetate]
- IC50 ([1]; method AA1 (3 μM ATP) or AA2 (1000 μM ATP), not stated per value): 0.017 µM
- IC50 ([2]; method AA1 (90 μM ATP) or AA2 (1000 μM ATP), not stated per value): 0.0073 µM
- IC50 ([3]; method AA1 (30 μM ATP) or AA2 (1000 μM ATP), not stated per value): 0.0037 µM
- ALK % of inhibition at a concentration of 500 nM or 1 mM ([4]; compound at 500 nM or 1 mM, 90 μM ATP): 31%
- IC50 (TYK2): 0.013 µM

Compound: NC(=O)N1CCN(c2cc(-c3cc4cc(c3)Nc3ncc(Cl)c(n3)Nc3cccc(c3)OCC4)ccn2)CC1 [Example D39, 4-{4-[6-Chloro-14-oxa-2,4,8,23-tetraazatetracyclo[15.3.1.1(3,7).1(9,13)]tricosa-1(21),3(23),4,6,9(22),10,12,17,19-nonaen-19-yl]pyridin-2-yl}piperazine-1-carboxamide bis(trifluoroacetate)]
- IC50 ([1]; Table D1): 0.0064 µM
- IC50 ([2]; Table D1): 0.0005 µM
- IC50 ([3]; Table D1): 0.0005 µM
- IC50 ([4]; 90 μM ATP): 0.091 µM
- IC50 (TYK2; Table D1): 0.0018 µM
